From PubChem BioAssay (NCI) come the findings set out here.

Holding throughout (experiment): NCI tumour cell line growth inhibition, 48 h
Test [1] concerns ACHN renal.
Test [2] concerns UACC-62 melanoma.
The subject of test [3] is M14 melanoma.
Test [4] concerns U251 CNS.
Test [5] has as its system PC-3 prostate.
Test [6] concerns K-562 leukemia.
Test [7] concerns MALME-3M melanoma.
For test [8], the system named is HCT-15 colon.
For test [9], the system named is OVCAR-5 ovarian.
Test [10] has as its system UO-31 renal.

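In this assay, cells in 96-well plates receive the compound at five concentrations for 48 hours. Endpoints are linearly interpolated between the surrounding concentrations. The concentration for 50% growth inhibition is given as GI50. TGI denotes the concentration required for complete inhibition of growth.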

As for `O=C(CC(O)(C(F)(F)F)C(F)(F)F)c1cccs1`, the TGI in [1], in [2], in test [3], in [4], in test [5] and in test [6] was over 10 µM throughout. Also, the TGI in [7] and in test [8] was over 10 µM each time.

Regarding `CC(=O)NC(CCc1ccc(Cl)c(Cl)c1)c1cccc(O)c(=O)c1` (stereo unspecified), the GI50 is 0.286 µM in [1]; 0.619 µM in test [2]; 0.434 µM in [3]; 1.58 µM in test [9]; 0.428 µM in test [4]; 0.78 µM in test [5]. Besides, the GI50 in test [6] is 0.653 µM; in [7], 1.45 µM; in test [8], 0.131 µM; in [10] it was 0.109 µM. For the same compound, the TGI in test [1] stood at 31.6 µM; in test [2], 1.98 µM; in test [3], 3.09 µM; in [9], 21.8 µM; in test [4], 11.5 µM; in test [5], 24.7 µM. Moreover, the TGI in test [6] stood at 29.1 µM; in test [7], 7.12 µM; in test [8], 19.6 µM; in test [10] it was 2.2 µM.

As to `N=C1C(c2nc3ccccc3c(=O)[nH]2)=C(O)CN1c1cccc(Cl)c1`, the GI50 in test [1] is 3.4 µM; in test [2] it was 3.27 µM; in [3], 5.26 µM; in test [9], over 30.8 µM; in [4], 2.22 µM; in test [5], 2.69 µM. The GI50 in test [6] was 1.39 µM; in test [7] it was 1.03 µM; in test [8], 1.51 µM; in [10] it was 13.3 µM. In addition, the TGI in [1] was over 100 µM; in test [2], over 100 µM; in [3], over 100 µM; in test [9] it was over 100 µM; in [4] it was over 50 µM; in test [5], over 29.5 µM. Further, the TGI is over 100 µM in [6], 10.7 µM in [7], over 100 µM in test [8] and over 100 µM in test [10].

Take `Nc1ncc(-c2ccc3ncnc(N4CCc5cc(F)c(Cl)cc54)c3c2)cc1C=O`: the GI50 was 0.638 µM in test [1]; 0.574 µM in test [2]; 1.85 µM in test [3]; 0.867 µM in test [9]; 2.7 µM in [4]; 0.824 µM in [5]. For the same compound, the GI50 was 2.82 µM in test [6], 1.13 µM in [7], 2.41 µM in test [8] and 0.277 µM in test [10]. Besides, the TGI in test [1] was over 100 µM; in test [2], 3.02 µM; in test [3] it was over 100 µM; in test [9], over 100 µM; in test [4], over 100 µM; in [5], over 100 µM. Besides, the TGI in test [6], in [7], in [8] and in test [10] was over 100 µM throughout.

Turning to `Cc1c(Br)c(Br)c2c3c1nc(N1CCNCC1)n3CCC2`, the GI50 was 1.39 µM in test [1]; 1.62 µM in test [2]; 1.8 µM in [3]; 1.72 µM in test [9]; 1.86 µM in test [4]; 1.04 µM in test [5]. In addition, the GI50 was 2.14 µM in [6], 1.85 µM in test [7], 1.69 µM in [8] and 1.54 µM in [10]. Moreover, the TGI in [1] stood at 2.71 µM; in [2] it was 3.08 µM; in test [3], 3.55 µM; in [9], 3.54 µM; in test [4], 4.11 µM; in test [5] it was 2.25 µM. Moreover, the TGI came out at 5.49 µM in [6], 3.41 µM in test [7], 3.33 µM in test [8] and 2.91 µM in [10].

For the compound `CN(C)C/C=C/C(=O)Nc1ccc(C(=O)Nc2cccc(Nc3ncc(Cl)c(-c4c[nH]c5ccccc45)n3)c2)cc1`, the GI50 is 0.0957 µM in [1]; 0.043 µM in test [2]; 0.0346 µM in test [3]; 0.0531 µM in test [9]; 0.0238 µM in [4]; 0.0315 µM in test [5]. In addition, the GI50 was under 0.0148 µM in test [6], 0.0212 µM in [7], 0.229 µM in [8] and 0.199 µM in [10]. The TGI in [2] is 0.259 µM; in test [3], 0.173 µM; in test [4], over 38.2 µM; in [5], 0.191 µM; in [6] it was over 100 µM; in test [7] it was 0.0873 µM. In addition, the TGI is over 100 µM in test [8] and 0.666 µM in test [10].

On to `Nc1nc2c(ncn2C2OC(CO)C(O)C2O)c(=O)o1` (stereo unspecified), for which the TGI in [1], in test [2], in test [3], in [9], in test [4] and in [5] was over 100 µM each time. The TGI in test [6], in test [7], in test [8] and in [10] was over 100 µM in each case.

`Cc1cc(NS(=O)(=O)c2ccc(-c3cnc(C4CC4)o3)cc2)ccc1Cl`: the GI50 in [1] was 0.586 µM; in test [2], 0.117 µM; in test [3], 0.192 µM; in test [9] it was 0.748 µM; in [4] it was 0.368 µM; in test [5], 0.272 µM. Also, the GI50 in test [6] was 0.0567 µM; in [7], 12.1 µM; in test [8], 0.116 µM; in [10] it was 0.835 µM. The TGI in test [1] was 14.6 µM; in test [2], 12.3 µM; in test [3] it was 15.9 µM; in test [9], 15 µM; in [4] it was 14.9 µM; in [5], 15.3 µM. The TGI in test [6] is over 100 µM; in [7], 26.5 µM; in test [8], 12.7 µM; in [10], 12.5 µM.
